Like-named read-outs stand apart in the source and are kept apart here.
Assays:
[1] = free state; cited from earlier work
[2] = tested on: STZ induced diabetic mice
Protocol: Streptozotocin (STZ; 2-deoxy-2-(3-methyl-3-nitrosoureido)-D-glucopyranose), a diabetogenic agent having the ability to induce pancreatic β-cell toxicity, is one of the chemicals used worldwide to induce diabetes in a simple and convenient method.
Adult albino mice, Mus musculus, three months old, weighing 30±5 g were procured from Sri Raghavendra Enterprises, Bangalore and acclimatized to laboratory conditions (12:12 hr dark/light, 25±2° C.) for one week. During acclimatization and thereafter, mice were maintained on standard rodent pellet and tap water ad libitum in accordance with ethical guidelines for animal care and experimentation.
Six (6) groups with six mice each were used. […] Group II became the positive control. […] On the fifth day after the first administration, blood was collected by tail pricking and blood glucose levels measured using an ACCU-CHECK® glucometer on a daily basis. Subsequently each group was given its respective second and subsequent doses through intraperitoneal injection.

[3] = tested on: STZ-induced diabetic rats; conditions: for blood glucose level: 75 mg/kgbw intraperitoneal once every five days
Protocol: Healthy adult male albino Rattus norvegicus Wistar rats, weighing 170-200 g were procured from Sri Raghavendra Enterprises, Bangalore, Karnataka, India. Studies were conducted in accordance with the guidance for the care and standard experimental animal ethical protocols. Animals were acclimated for a week, maintained at room temperature of 25±2° C. with 12-h dark-light cycle and given tap water and a standard rodent pellet diet ad libitum.
Six (6) groups with six rats each were used. Group I consisted of control animals and diabetes was induced in 12 hour fasted rats in Groups II-VI by a single intraperitoneal 60 mg/kgbw dose of STZ dissolved in freshly prepared 0.1 mol/L citrate buffer (pH 4.5). Blood samples obtained by sequential snipping of the tail and blood glucose levels measured using an ACCU-CHECK® glucometer on a daily basis. […] Group II became the positive control.
The dose-response of the drug was monitored for a period of 30 and 90 days using differential grades of drug at doses of 1, 10, 25, 50, 75, and 100 mg/kgbw administered once every five days. On the fifth day after the first administration, blood was collected and blood glucose levels measured using an ACCU-CHECK® glucometer. Subsequently each group was given its respective second and subsequent doses through intraperitoneal injection.
(§1) The following values were determined spectrophotometrically: (a) daily blood glucose levels (via Accu-check glucometer kit, Roche Diagnostics India); (b) hepatic glycogen (see Seifter et al., (1950) Arch Biochem 25(1):191-200); (c) glycosylated hemoglobin (see Sudhakar and Pattabiraman (1981) Clin Chim Acta 109:267-274); (d) blood urea nitrogen (BUN); (e) serum creatinine (see Hare (1950) Proc Soc Exp Biol Med 74:148-151); and (f) hepatic enzymes (AST, ALT) (see Reitman and Frankel (1957) Am J Clin Pathol 28:56-63).
(§2) Biostatistical analysis was conducted using SPSS 20.0 software. Analysis of variance (one-way ANOVA) was performed with the Tukey HSD post hoc test.

[4] = tested on: STZ-induced diabetic rats; conditions: for blood glucose levels: 100 mg/kgbw oral once every five days
Protocol: as §1, §2
The dose-response of the drug was monitored for a period of 30 and 90 days using drug doses of 100 and 200 mg/kgbw administered once every five days. Spectrophotometric measurements and statistical analysis were obtained as in Example 2.

Compound	toxicity [1]	hyperglycemic condition ([2]; 250 mg/kgbw intraperitoneal, 30 days, data not shown)	blood glucose level ([2]; 250 mg/kgbw intraperitoneal, multiple doses once every 5 days)	blood glucose level ([2]; the other doses (50, 150, 300 mg/kgbw) intraperitoneal)	blood glucose level ([3]; after 30 days) [mg/dL]	blood glucose level ([3]; three months (90 days), P<0.05) [mg/dL]	insulin levels ([3]; 75 mg/kgbw intraperitoneal, compared to the control (FIG. 24))	glycogen level ([3]; 75 mg/kgbw intraperitoneal, day 30, hepatic glycogen) [mg/g tissue]	glycogen level ([3]; 75 mg/kgbw intraperitoneal, day 90, hepatic glycogen) [mg/g tissue]	blood glucose levels ([4]; day 30) [mg/dL]	blood glucose levels ([4]; day 90) [mg/dL]	glycogen levels ([4]; oral (FIG. 18))	insulin levels ([4]; oral, compared to the control (FIG. 25))
O=C(O)c1cccc(C(=O)O)n1 [dipicolinic acid, Pyridine-2,6-dicarboxylic acid]	nontoxic	–	–	–	–	–	–	–	–	–	–	–	–
(Diaqua)(2,6-pyridine diacetyl-carboxylato)oxovanadium(IV) [Complex 1]	–	reduced the hyperglycemic condition in a steady state for a period of 30 days	stable and sustainable blood glucose level throughout the study	irregularity in maintaining the reduced levels	135	118.7	significantly reducing insulin levels as compared to the control	2.01	2.00	108	102	significant effect on increasing the glycogen levels	significant reduction in insulin levels as compared to the control
